The source of these data is PMC7386655, “Spontaneous mutations that confer resistance to 2-deoxyglucose act through Hxk2 and Snf1 pathways to regulate gene expression and HXT endocytosis” (PLoS Genetics, 2020).

Structures are written as SMILES.

The experiment concerns the target T1, Hxk2 (Saccharomyces cerevisiae, UniProt P04807).
T1 construct: expressed from low-copy plasmid in hxk1Δ hxk2Δ glk1Δ yeast; whole cell extract; probably C-terminal 3xV5 tag
T1 sequence (P04807 2-486): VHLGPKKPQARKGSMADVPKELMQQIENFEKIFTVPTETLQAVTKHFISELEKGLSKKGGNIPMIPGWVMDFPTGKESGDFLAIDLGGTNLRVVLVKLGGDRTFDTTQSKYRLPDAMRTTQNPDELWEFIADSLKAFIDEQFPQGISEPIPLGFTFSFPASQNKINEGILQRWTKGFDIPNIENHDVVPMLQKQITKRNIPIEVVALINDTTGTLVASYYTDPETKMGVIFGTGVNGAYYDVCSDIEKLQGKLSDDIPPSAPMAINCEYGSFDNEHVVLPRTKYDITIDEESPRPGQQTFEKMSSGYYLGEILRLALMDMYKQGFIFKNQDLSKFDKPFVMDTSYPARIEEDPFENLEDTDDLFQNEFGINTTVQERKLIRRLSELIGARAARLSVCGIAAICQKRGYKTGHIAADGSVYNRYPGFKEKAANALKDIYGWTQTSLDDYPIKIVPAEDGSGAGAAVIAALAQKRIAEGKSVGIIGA
Briefly: G6PDH-coupled NADPH absorbance at […] nm, double reciprocal plot. It counts as biochemical. The settings on record: read-out: Km Glucose; 1 mM ATP, 10 mM MgCl2, pH 7.4; whole cell extract.

For orientation: Km means the substrate concentration at which the rate is half of its maximum. Regarding `OC[C@H]1OC(O)[C@H](O)[C@@H](O)[C@@H]1O` (stereo partly shown) [glucose], the Km came out at 190 µM.
